From ChEMBL document CHEMBL4673347, “Discovery of new thieno[2,3-d]pyrimidine and thiazolo[5,4-d]pyrimidine derivatives as orally active phosphoinositide 3-kinase inhibitors” (Bioorg Med Chem, 2021)
Active and inactive are the calls of the source. No cut-off for these calls is given here.

Legend:
[1] = test system: HGC-27; experiment: Antitumor activity against human HGC-27 cells xenografted in BALB/c mouse assessed as tumor growth inhibition at 20 mg/kg, po administered for 25 days and measured on day 25 relative to control; assay type: functional; conditions: HGC-27, po, 600 h, time 25 day, read-out: TGI
[2] = test system: MDA-MB-231; experiment: Antiproliferative activity against human MDA-MB-231 cells assessed as reduction in cell viability incubated for 72 hrs measured after 4 hrs of MTT addition by MTT assay; assay type: functional, cell-based
[3] = test system: HGC-27; experiment: Induction of cell cycle arrest in human HGC-27 cells assessed as G0/G1 phase incubated for 24 hrs by propidium iodide staining based flow cytometry analysis; assay type: functional; conditions: dose 20-500 nM
[4] = Oral bioavailability in ICR mouse at 40 mg/kg measured upto 24 hrs by LC-MS/MS analysis; assay type: ADME, organism-based; conditions: in vivo
[5] = test system: NCI-H292; experiment: Antiproliferative activity against human NCI-H292 cells assessed as reduction in cell viability incubated for 72 hrs measured after 4 hrs of MTT addition by MTT assay; assay type: functional, cell-based
[6] = Clearance in ICR mouse at 4 mg/kg, iv measured upto 24 hrs by LC-MS/MS analysis; assay type: ADME, organism-based; conditions: in vivo
[7] = target: Phosphatidylinositol 4,5-bisphosphate 3-kinase catalytic subunit beta isoform (Homo sapiens, UniProt P42338); experiment: Inhibition of recombinant human PI3Kbeta using PIP2 as substrate by ADP-Glo reagent based assay
Phosphatidylinositol 4,5-bisphosphate 3-kinase catalytic subunit beta isoform, sequence (P42338 whole entry, canonical isoform): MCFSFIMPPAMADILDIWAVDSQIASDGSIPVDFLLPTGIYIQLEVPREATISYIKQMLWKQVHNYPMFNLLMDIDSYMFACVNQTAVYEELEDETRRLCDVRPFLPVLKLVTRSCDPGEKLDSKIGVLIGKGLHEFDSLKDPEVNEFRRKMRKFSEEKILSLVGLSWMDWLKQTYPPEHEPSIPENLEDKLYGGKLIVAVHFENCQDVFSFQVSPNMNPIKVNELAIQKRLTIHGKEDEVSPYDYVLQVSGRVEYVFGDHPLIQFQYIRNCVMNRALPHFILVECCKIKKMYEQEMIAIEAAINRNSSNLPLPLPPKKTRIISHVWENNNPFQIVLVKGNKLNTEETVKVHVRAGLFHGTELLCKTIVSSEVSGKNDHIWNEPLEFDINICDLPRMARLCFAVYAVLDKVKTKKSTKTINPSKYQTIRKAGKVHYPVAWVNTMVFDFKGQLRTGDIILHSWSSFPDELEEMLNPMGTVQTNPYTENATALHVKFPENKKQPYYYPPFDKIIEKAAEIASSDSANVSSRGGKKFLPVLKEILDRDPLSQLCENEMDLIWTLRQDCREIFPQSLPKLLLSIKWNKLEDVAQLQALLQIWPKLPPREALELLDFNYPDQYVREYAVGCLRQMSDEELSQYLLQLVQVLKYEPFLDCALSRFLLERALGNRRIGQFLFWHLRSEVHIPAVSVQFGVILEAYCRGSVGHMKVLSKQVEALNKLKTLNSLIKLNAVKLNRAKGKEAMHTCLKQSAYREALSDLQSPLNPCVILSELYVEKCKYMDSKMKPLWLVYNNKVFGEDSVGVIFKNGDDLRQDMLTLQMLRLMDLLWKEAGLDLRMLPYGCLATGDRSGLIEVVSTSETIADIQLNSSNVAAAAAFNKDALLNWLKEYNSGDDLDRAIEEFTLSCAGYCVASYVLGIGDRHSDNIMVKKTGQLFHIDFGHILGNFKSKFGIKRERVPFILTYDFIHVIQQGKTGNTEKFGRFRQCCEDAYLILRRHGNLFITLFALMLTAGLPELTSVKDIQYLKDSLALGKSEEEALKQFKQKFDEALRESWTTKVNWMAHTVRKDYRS

[8] = test system: A549; experiment: Antiproliferative activity against human A549 cells assessed as reduction in cell viability incubated for 72 hrs measured after 4 hrs of MTT addition by MTT assay; assay type: functional, cell-based
[9] = Toxicity in BALB/c mouse xenografted with human HGC-27 cells assessed as body weight reduction at 40 mg/kg, po administered for 25 days and measured on day 25; assay type: organism-based; set-up: scale not given: the % may be the effect or the level left; conditions: in vivo, 600 h, time 25 day
[10] = test system: SNU-16; experiment: Antiproliferative activity against human SNU-16 cells assessed as reduction in cell viability incubated for 72 hrs measured after 4 hrs of MTT addition by MTT assay; assay type: functional, cell-based
[11] = test system: HGC-27; experiment: Induction of apoptosis in human HGC-27 cells assessed as early apoptotic cells at 500 nM incubated for 24 hrs by annexin V-FITC and propidium iodide based staining based flow cytometry analysis (reference value: 6.22 %); assay type: functional
[12] = Protein binding in plasma (unknown origin) assessed as unbound fraction; assay type: ADME, cell-free
[13] = Apparent permeability across apical to basolateral side in human Caco-2 cells; assay type: ADME, cell-based
[14] = test system: Mus musculus; experiment: In vivo inhibition of PI3Kalpha in BALB/c mouse assessed as increase in plasma glucose level at 40 mg/kg, po measured after 24 hrs; assay type: functional, organism-based
[15] = test system: HGC-27; experiment: Antitumor activity against human HGC-27 cells xenografted in BALB/c mouse assessed as tumor growth inhibition administered orally for 25 days and measured on day 25; assay type: functional; conditions: time 25.0 day

| Structure (SMILES) | inhibition in vivo at 20 mg/kg [1] [%] | IC50 [2] [nM] | Activity [3] | bioavailability [4] [%] | IC50 [5] [nM] | clearance [6] [mL/min/kg] | IC50 [7] [nM] | IC50 [8] [nM] | Activity [9] [%] | IC50 [10] [nM] | Activity [11] [%] | Fu [12] [%] | Papp A→B [13] [×10⁻⁶ cm/s] | inhibition [14] | TGI [15] |
| --- | --- | --- | --- | --- | --- | --- | --- | --- | --- | --- | --- | --- | --- | --- | --- |
| COc1ncc(-c2nc3c(N4CCOCC4)ncnc3s2)cc1NS(=O)(=O)c1ccc(F)cc1F | 75.5 | 860 | Dose-dependent effect | 54.5 | 320 | 2.65 | 5.3 | 620 | 14.8 | 3100 | 17.6 | 0.3 | 21.4 | inactive | Dose-dependent effect |
| COc1ncc(-c2cc3c(N4CCOCC4)ncnc3s2)cc1NS(=O)(=O)c1ccc(F)cc1F |  | 8200 | Dose-dependent effect | 99.5 | 2700 | 4.6 | 50 | 7800 |  | 5800 | 15.8 | 0.3 | 21.1 | inactive |  |
